pIC50: −log10 of the molar value. Converted amounts (≈) assume the structure as drawn.
Key:
[1] = target: T1, Histone-lysine N-methyltransferase EHMT2 (Homo sapiens, UniProt Q96KQ7); assay: Inhibition of N-terminal GST-tagged human recombinant G9a (785 to 1210 residues) expressed in baculovirus infected Sf9 cells incubated for 1 hr by AlphaLISA analysis
T1 sequence (Q96KQ7 whole entry): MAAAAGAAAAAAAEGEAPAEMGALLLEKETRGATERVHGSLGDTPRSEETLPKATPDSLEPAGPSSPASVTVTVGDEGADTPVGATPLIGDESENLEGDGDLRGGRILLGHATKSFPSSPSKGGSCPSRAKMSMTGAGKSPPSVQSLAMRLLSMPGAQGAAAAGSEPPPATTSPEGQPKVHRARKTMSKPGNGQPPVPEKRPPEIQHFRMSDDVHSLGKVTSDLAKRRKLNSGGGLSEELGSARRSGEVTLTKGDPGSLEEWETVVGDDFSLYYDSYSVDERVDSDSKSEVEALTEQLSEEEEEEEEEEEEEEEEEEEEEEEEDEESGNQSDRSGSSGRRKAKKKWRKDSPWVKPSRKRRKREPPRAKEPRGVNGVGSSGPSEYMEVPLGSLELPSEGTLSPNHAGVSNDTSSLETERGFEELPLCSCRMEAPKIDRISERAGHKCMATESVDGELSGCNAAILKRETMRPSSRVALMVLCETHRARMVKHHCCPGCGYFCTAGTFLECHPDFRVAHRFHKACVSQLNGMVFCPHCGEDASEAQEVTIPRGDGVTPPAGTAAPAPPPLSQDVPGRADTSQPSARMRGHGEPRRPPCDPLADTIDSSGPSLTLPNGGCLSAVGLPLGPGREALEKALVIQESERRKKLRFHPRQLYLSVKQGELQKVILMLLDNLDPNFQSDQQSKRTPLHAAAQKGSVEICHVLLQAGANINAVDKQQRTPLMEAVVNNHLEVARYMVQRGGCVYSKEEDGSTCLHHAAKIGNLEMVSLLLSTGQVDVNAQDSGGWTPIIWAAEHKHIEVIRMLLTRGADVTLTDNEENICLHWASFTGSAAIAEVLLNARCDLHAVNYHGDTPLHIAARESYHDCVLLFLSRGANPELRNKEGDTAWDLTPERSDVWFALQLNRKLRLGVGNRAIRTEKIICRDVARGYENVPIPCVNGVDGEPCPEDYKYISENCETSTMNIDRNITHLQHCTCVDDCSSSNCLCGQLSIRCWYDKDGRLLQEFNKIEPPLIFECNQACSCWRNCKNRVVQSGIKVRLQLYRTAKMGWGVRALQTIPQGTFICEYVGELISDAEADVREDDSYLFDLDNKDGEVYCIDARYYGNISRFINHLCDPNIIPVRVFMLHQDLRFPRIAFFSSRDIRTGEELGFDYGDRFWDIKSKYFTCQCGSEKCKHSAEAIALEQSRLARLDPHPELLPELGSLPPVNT

[2] = Aqueous solubility of compound at pH 7.4 measured for 1 hr by UV-plate reader analysis; format: physicochemical; conditions: buffer
[3] = Permeability of compound by PAMPA assay; format: ADME; conditions: read-out: permeability
[4] = Microsomal stability in mouse liver microsomes assessed as parent compound remaining after 30 mins in presence of NADPH by LC -MS/MS analysis; format: ADME, Microsome; conditions: read-out: Stability
[5] = Microsomal stability in human liver microsomes assessed as parent compound remaining after 30 mins in presence of NADPH by LC -MS/MS analysis; format: ADME, Microsome; conditions: read-out: Stability

Row | Structure (SMILES) | pIC50 [1] | solubility at 1 h [2] [µM] | Papp [3] [×10⁻⁶ cm/s] | remaining at 0.5 h [4] [%] | remaining at 0.5 h [5] [%]
1 | CCCC[C@@H](NC(=O)c1[nH]c2c(c1C)C(=O)CC(C)(C)C2)C(=O)Nc1ccccc1 | 5.06 | – | – | – | –
2 | Cc1c(C(=O)NC(CCC2CCC2)C(=O)Nc2ccccc2)[nH]c2c1C(=O)CC(C)(C)C2 (racemic) | 6.20 | – | – | – | –
3 | CCCC[C@H](NC(=O)c1[nH]c2c(c1CC)C(=O)CC(C)(C)C2)C(=O)Nc1ccccc1 | 6.75 | – | – | – | –
4 | CCCCC(NC(=O)c1[nH]c2c(c1C)C(=O)CC(C)(C)C2)C(=O)Nc1cccc(OC)c1 (racemic) | 5.92 | 3 (≈ 1.32 µg/mL) | – | – | –
5 | CCCCC(NC(=O)c1[nH]c2c(c1C)C(=O)CC(C)(C)C2)C(=O)NC1CCCCC1 (racemic) | 6.03 | 15 (≈ 6.23 µg/mL) | 4.15 | 0 | 1.2
6 | CCCCC(NC(=O)c1[nH]c2c(c1C)C(=O)CC(C)(C)C2)C(=O)Nc1cccc(C#N)c1 (racemic) | 6.16 | 14.5 (≈ 6.3 µg/mL) | 7.78 | 6.4 | 79.1
7 | CCCC(NC(=O)c1[nH]c2c(c1C)C(=O)CC(C)(C)C2)C(=O)Nc1ccccc1 (racemic) | 5.39 | – | – | – | –
8 | CCCC[C@H](NC(=O)c1[nH]c2c(c1C(C)C)C(=O)CC(C)(C)C2)C(=O)Nc1ccccc1 | 7.14 | – | – | – | –
9 | CCCC[C@H](NC(=O)c1[nH]c2c(c1C)C(=O)CC1(CCCCC1)C2)C(=O)Nc1ccccc1 | 5.83 | – | – | – | –
10 | CCCCNC(=O)C(CCCC)NC(=O)c1[nH]c2c(c1C)C(=O)CC(C)(C)C2 (racemic) | 5.96 | 11 (≈ 4.28 µg/mL) | 8.73 | 0.8 | 30.6
11 | CCCCC(NC(=O)c1[nH]c2c(c1C)CCC(C)(C)C2)C(=O)Nc1ccccc1 (racemic) | < 4.30 | – | – | – | –
12 | CCCCC(NC(=O)c1[nH]c2c(c1C)C(=O)CCC2)C(=O)Nc1ccccc1 (racemic) | 4.68 | – | – | – | –
13 | CCCCC(NC(=O)c1[nH]c2c(c1C)C(=O)CC(C)(C)C2)C(=O)Nc1cccnc1 (racemic) | 5.74 | 143 (≈ 58.7 µg/mL) | 6.95 | 44.7 | 32.4
14 | CC(C)NCC(O)COc1cccc2ccccc12 (centres undefined) [PROPRANOLOL] | – | – | 19.4 | – | –
15 | CCCC[C@H](NC(=O)c1[nH]c2c(c1C(C)(C)C)C(=O)CC(C)(C)C2)C(=O)Nc1ccccc1 | < 4.30 | – | – | – | –
16 | CCCCC(NC(=O)c1c(C)c2c(n1C)CC(C)(C)CC2=O)C(=O)Nc1ccccc1 (racemic) | < 4.30 | – | – | – | –
17 | CCCCCC(NC(=O)c1[nH]c2c(c1C)C(=O)CC(C)(C)C2)C(=O)Nc1ccccc1 (racemic) | < 4.30 | – | – | – | –
18 | Cc1c(C(=O)N[C@@H](CCN(C)C)c2nc3ccccc3[nH]2)[nH]c2c1C(=O)CC(C)(C)C2 | 4.77 | – | – | – | –
19 | Cc1c(C(=O)NC(CCCCN)C(=O)Nc2ccccc2)[nH]c2c1C(=O)CC(C)(C)C2 (racemic) | 4.56 | – | – | – | –
20 | CCCCC(NC(=O)c1[nH]c2c(c1C)C(=O)CC(C)(C)C2)C(=O)Nc1ccc(Cl)cc1 (racemic) | 5.82 | 5.1 (≈ 2.26 µg/mL) | – | – | –
21 | CCCC[C@H](NC(=O)c1[nH]c2c(c1C)C(=O)CC(C)(C)C2)c1nc2ccccc2[nH]1 | 5.72 | – | – | – | –
22 | CCCCC(NC(=O)c1[nH]c2c(c1C)C(=O)CC(C)(C)C2)C(=O)Nc1ccc(OC)cc1 (racemic) | 5.74 | 5.9 (≈ 2.59 µg/mL) | – | – | –
23 | CCCCC(NC(=O)c1[nH]c2c(c1C)C(=O)CC(C)(C)C2)C(=O)Nc1ccc(C(N)=O)cc1 (racemic) | 6.28 | 104 (≈ 47.1 µg/mL) | 0.62 | 92.2 | 90.9

Row | Structure (SMILES) | pIC50 [1] | solubility at 1 h [2] [µM] | Papp [3] [×10⁻⁶ cm/s] | remaining at 0.5 h [4] [%] | remaining at 0.5 h [5] [%]
24 | CCCCC(NC(=O)c1[nH]c2c(c1C)C(=O)CC(C)(C)C2)C(=O)Nc1ccc(F)cc1 (racemic) | 6.04 | 16.5 (≈ 7.05 µg/mL) | 23.5 | 37.5 | 83.8
25 | Cc1c(C(=O)NC(CCC(C)C)C(=O)Nc2ccccc2)[nH]c2c1C(=O)CC(C)(C)C2 (racemic) | 6.54 | – | – | – | –
26 | CCCCC(NC(=O)c1[nH]c2c(c1C)C(=O)CC(C)(C)C2)C(=O)Nc1ccccc1OC (racemic) | 6.10 | 7.2 (≈ 3.16 µg/mL) | 49.4 | 1.7 | 11.8
27 | CCCC[C@H](NC(=O)c1[nH]c2c(c1CCC)C(=O)CC(C)(C)C2)C(=O)Nc1ccccc1 | 6.51 | – | – | – | –
28 | CCCCC(NC(=O)c1[nH]c2c(c1C)C(=O)CC(C)(C)C2)C(=O)Nc1ccc(S(C)(=O)=O)cc1 (racemic) | 5.53 | 43.6 (≈ 21.3 µg/mL) | 1.39 | – | –
29 | CSCCC(NC(=O)c1[nH]c2c(c1C)C(=O)CC(C)(C)C2)c1nc2ccccc2[nH]1 (racemic) | 5.27 | – | – | – | –
30 | CCCCC(NC(=O)c1[nH]c2c(c1C)C(=O)CC(C)(C)C2)C(=O)Nc1ccccc1 (racemic) | – | 20.1 (≈ 8.23 µg/mL) | 12.5 | 19.9 | 77.8
31 | CCCCC(NC(=O)c1[nH]c2c(c1C)C(=O)CC(C)(C)C2)C(=O)Nc1cccc(Cl)c1 (racemic) | 5.81 | 4.5 (≈ 2 µg/mL) | – | – | –
32 | CCCCC(NC(=O)c1oc2c(c1C)C(=O)CC(C)(C)C2)C(=O)Nc1ccccc1 (racemic) | < 4.30 | – | – | – | –
33 | CCCC[C@@H](NC(=O)c1[nH]c2c(c1C)C(=O)CC(C)(C)C2)c1nc2ccccc2[nH]1 | 5.35 | – | – | – | –
34 | Cc1c(C(=O)NC(COC2CC2)C(=O)Nc2ccccc2)[nH]c2c1C(=O)CC(C)(C)C2 (racemic) | 5.80 | – | – | – | –
35 | Cc1c(C(=O)NC(CCC2(C)CC2)C(=O)Nc2ccccc2)[nH]c2c1C(=O)CC(C)(C)C2 (racemic) | 5.87 | – | – | – | –
36 | Cc1c(C(=O)NC(CCc2ccccc2)C(=O)Nc2ccccc2)[nH]c2c1C(=O)CC(C)(C)C2 (racemic) | < 5.30 | – | – | – | –
37 | Cc1c(C(=O)NC(CC2CC2)C(=O)Nc2ccccc2)[nH]c2c1C(=O)CC(C)(C)C2 (racemic) | 5.94 | – | – | – | –
38 | Cc1c(C(=O)N[C@@H](CCCN(C)C)c2nc3ccccc3[nH]2)[nH]c2c1C(=O)CC(C)(C)C2 | < 4.30 | – | – | – | –
39 | CCCCC(NC(=O)c1[nH]c2c(c1C)C(=O)CC(C)(C)C2)C(=O)Nc1ccc(C)cc1 (racemic) | 6.31 | 1.8 (≈ 0.762 µg/mL) | – | – | –
40 | CSCC[C@H](NC(=O)c1[nH]c2c(c1C)C(=O)CC(C)(C)C2)c1nc2ccccc2[nH]1 | 5.84 | – | – | – | –
41 | CCCC[C@H](NC(=O)c1[nH]c2c(c1C)C(=O)CC(C)(C)C2)C(=O)Nc1ccccc1 | 6.45 | – | – | – | –
42 | Cc1c(C(=O)NC(CCCN)C(=O)Nc2ccccc2)[nH]c2c1C(=O)CC(C)(C)C2 (racemic) | 4.91 | – | – | – | –
43 | CCCCC(NC(=O)c1[nH]c2c(c1C)C(=O)CC(C)(C)C2)C(=O)N(C)c1ccccc1 (racemic) | < 4.30 | 4.9 (≈ 2.08 µg/mL) | – | – | –
44 | CCCC[C@H](NC(=O)c1[nH]c2c(c1C)C(=O)CC1(CCOCC1)C2)C(=O)Nc1ccccc1 | 5.68 | – | – | – | –
45 | CCCCC(NC(=O)c1[nH]c2c(c1C)C(=O)CC(C)(C)C2)C(=O)Nc1ccc(C(=O)O)cc1 (racemic) | 5.74 | – | – | – | –

From ChEMBL document CHEMBL5247652, “Discovery of Novel Substrate-Competitive Lysine Methyltransferase G9a Inhibitors as Anticancer Agents” (J Med Chem, 2023)
